Assay results taken from US20230339977A1, “SUBSTITUTED HETEROARYL COMPOUND, AND COMPOSITION AND APPLICATION THEREOF” (SUNSHINE LAKE PHARMA CO., LTD., priority 2020, published 2023).

How the values were obtained:
[1] = Stability in human liver microsomes; format: in vitro ADME
Description: (§1) The stability of the compounds of the present invention in human and rat liver microsomes can be tested by the following two methods:
(§2) Human or rat liver microsomes were incubated in polypropylene tubes in duplicate wells. A typical incubation mixture included human or rat liver microsomes (0.5 mg protein/mL), target compound (5 µM), and a total volume of 200 µL of NADPH (1.0 mM) potassium phosphate buffer (PBS, 100 mM, pH 7.4), the compound was dissolved in DMSO and diluted with PBS, the final concentration of the DMSO solution was 0.05%. Human or rat liver microsomes were incubated at 37° C. in an air-connected water bath. After pre-incubation for 3 minutes, […] was added to start the reaction. The same volume of ice-cold acetonitrile was added to terminate the reaction at different time points (0, 5, 10, 15, 30 and 60 min). Samples were stored at -80° C. until LC/MS/MS analysis.
(§3) The linear concentration range of each target compound was determined, and then, the concentration of the target compounds in the human or rat liver microsomes incubation mixture was determined by LC/MS/MS method.
(§4) Parallel incubations were performed using denatured microsomes as a negative control and dextromethorphan (70 µM) as a positive control. Negative control was incubated at 37° C., the reaction was terminated at different time points (0, 15 and 60 minutes); positive control was incubated at 37° C., the reaction was terminated at different time points (0, 5, 10, 15, 30 and 60 minutes). Positive and negative control samples were used in each assay to ensure the integrity of the microsomal incubation system.
(§5) In addition, the stability data of the compounds of the present invention in human or rat liver microsomes can also be obtained from the following tests:
(§6) Human or rat liver microsomes were incubated in polypropylene tubes in duplicate wells. A typical incubation mixture included human or rat liver microsomes (final concentration: 0.5 mg protein/mL), target compound (final concentration: 1.5 µM) and a total volume of 30 µL of K-buffer solution (containing 1.0 mM EDTA, 100 mM, pH 7.4). Compounds were dissolved in DMSO and diluted with K-buffer solution, the final concentration of DMSO was 0.2%. […]
(§7) For each reaction, in vivo intrinsic hepatic clearance CLint is extrapolated by plotting the compound concentration (expressed as a percentage) in human or rat liver microsomal incubations as a percentage relative to time zero (ref.: Naritomi Y, Terashita S, Kimura S, Suzuki A, Kagayama A, Sugiyama Y. Prediction of human hepatic clearance from in vivo animal experiments and in vitro metabolic studies with liver microsomes from animals and humans. Drug Metabolism and Disposition 2001, 29: 1316-1324.).

[2] = tested on: JAK1/TYK2; experiment: Cell level activity test of JAK1/TYK2 (IFN-α induced STAT3 phosphorylation in PBMC); format: cell-based; conditions: Homo sapiens; P-STAT3 by ELISA in PBMC, compound 1 h, IFN-α 5000 U/mL 15 min; read-out: IC50 nM (JAK 1 /TYK2)
Description: IFN-α can induce the phosphorylation of STAT3 downstream of JAK1/TYK2 in PBMC, and by measuring the level of STAT3 phosphorylation, the activity of the compound on JAK1/TYK2 at the cell level can be reflected.
Whole blood was collected from healthy subjects, anticoagulated with heparin sodium, and PBMC (human peripheral blood mononuclear cells) were extracted. PBMC were seeded in a 96-well culture plates at a density of 1*106/well. Positive wells and negative wells were added with the same volume of DMSO as the compound, and the final concentration of DMSO was 0.5%. The compounds were incubated with the cells at 37° C. for 1 h, and then stimulated by adding IFN-α at a final concentration of 5000 U/mL, an equal volume of medium was added to the negative wells, and incubated for 15 min. The cells were centrifuged to remove the supernatant, then lysed, and P-STAT3 was measured according to the instructions of the ELISA kit, the absorbance was read at 450 nm, and the IC50 value or inhibition rate was calculated.

[3] = tested on: CTLL-2 cells; experiment: Inhibitory effect on CTLL-2 cell proliferation; format: cell-based; conditions: alamar blue, read-out: IC50 (nM) CTLL-2 (h)
Description: CTLL-2, P-STAT3 and TF-1 cells were seeded in a 96-well culture plate at a density of 20,000/well with 90 µL per well, and the blank well was an equal amount of complete medium. 10 ul of different compound dilutions were added to each plate row BC, DE, and FG, and 5% DMSO medium with equal volume of the compound was added to positive wells and negative wells, and the final concentration of DMSO was 0.5%. After incubating in a 37° C. incubator for 20 h, alamar blue was added, the plate was incubated for 4 h, the fluorescence intensity of each well under the conditions of […], 580 nm wavelength was measured, and the IC50 value was calculated.

[4] = Stability in rat liver microsomes; format: in vitro ADME
Description: as §1, §2, §3, §4, §5, §6, §7

[5] = pH 7.4, in vivo intrinsic hepatic clearance extrapolated

half-life ([1]; human, pH 7.4, read-out: Human T½): 48.2 min
CLint scaled [1, 5]: 36 mL/min/kg
IC50 [2]: 95.8 nM
CLint scaled [4, 5]: 15.4 mL/min/kg
half-life ([4]; rat, pH 7.4, read-out: Rat T½): 161 min
SMILES: CC(=O)Nc1cc2c(-c3ccc4c(n3)C3(CCOC3)OC4)cn(C)c2cn1 (stereo not drawn) [Example 2, N-(3-(4,5-Dihydro-2H,5′H-Spiro[Furan-3,7′-Furo[3,4-b]Pyridin]-2′-yl)-1-Methyl-1H-Pyrrolo[2,3-c]Pyridin-5-yl)Acetamide]
IC50 [3]: > 10000 nM
